According to ChEMBL document CHEMBL4396865, “Current advances of triazole alcohols derived from fluconazole: Design, in vitro and in silico studies” (2019):
Values after ≈ are worked out from the molar mass of the structure shown.

How the values were obtained:
Assay type in all cases: functional
Candida albicans [1] = assay: Antifungal activity against Candida albicans after 48 hrs by NCCLS protocol based method
Candida parapsilosis [2] = assay: Antifungal activity against Candida parapsilosis after 48 hrs by NCCLS protocol based method; conditions: Lodderomyces parapsilosis
Candida albicans [3] = assay: Antifungal activity against Candida albicans CA98001; conditions: Candida albicans, CA98001; read-out: MIC
Candida albicans [4] = assay: Antifungal activity against Candida albicans DSY735; conditions: Candida albicans, DSY735; read-out: MIC
Candida albicans [5] = assay: Antifungal activity against Candida albicans CAAL-74; conditions: Candida albicans, CAAL-74; read-out: MIC
Pichia kudriavzevii [6] = assay: Antifungal activity against Candida krusei CK506; conditions: Pichia kudriavzevii, CK506; read-out: MIC
Pichia kudriavzevii [7] = assay: Antifungal activity against Candida krusei CK8; conditions: Pichia kudriavzevii, CK8; read-out: MIC
Nakaseomyces glabratus = assay: Antifungal activity against Candida glabrata CG468; conditions: Nakaseomyces glabratus, CG468; read-out: MIC
Candida parapsilosis [8] = assay: Antifungal activity against Candida parapsilosis CAPA1; conditions: Lodderomyces parapsilosis, CAPA1; read-out: MIC
Candida parapsilosis [9] = assay: Antifungal activity against Candida parapsilosis CAPA2; conditions: Lodderomyces parapsilosis, CAPA2; read-out: MIC
Aspergillus fumigatus [10] = assay: Antifungal activity against Aspergillus fumigatus AF98003
Candida albicans [11] = assay: Antifungal activity against Candida albicans; conditions: Candida albicans; for MIC: read-out: MIC
Pichia kudriavzevii [12] = assay: Antifungal activity against Candida krusei
Candida albicans [13] = assay: Potency index, ratio of fluconazole MIC to test compound MIC for Candida albicans
Pichia kudriavzevii [14] = assay: Potency index, ratio of fluconazole MIC to test compound MIC for Candida krusei
Candida parapsilosis [15] = assay: Antifungal activity against Candida parapsilosis; conditions: Lodderomyces parapsilosis
Candida tropicalis = assay: Antifungal activity against Candida tropicalis; conditions: Candida tropicalis
Kluyveromyces marxianus = assay: Antifungal activity against Candida kefyr; conditions: Kluyveromyces marxianus
Cryptococcus neoformans = assay: Antifungal activity against Cryptococcus neoformans; conditions: Cryptococcus neoformans
Trichophyton rubrum = assay: Antifungal activity against Trichophyton rubrum; conditions: Trichophyton rubrum
Aspergillus fumigatus [16] = assay: Antifungal activity against Aspergillus fumigatus; conditions: Aspergillus fumigatus
Candida albicans [17] = assay: Antifungal activity against Candida albicans ATCC 76615 after 24 hrs by microbroth dilution method; conditions: ATCC 76615, 24 h
Pichia norvegensis = assay: Antifungal activity against Candida mycoderma

Structure (SMILES): C[C@H](CCCn1cc(CC(O)(Cn2cncn2)c2ccc(F)cc2F)nn1)[C@H]1CC[C@H]2[C@@H]3[C@H](O)C[C@@H]4C[C@H](O)CC[C@]4(C)[C@H]3C[C@H](O)[C@]12C (some centres not stated)
- MIC (Candida albicans [1]): 3.12 to 6.25 µg/mL (≈ 4.57 to 9.15 µM)
- MIC (Candida parapsilosis [2]): 3.12 to 6.25 µg/mL (≈ 4.57 to 9.15 µM)

Structure (SMILES): CC(C)NS(=O)(=O)c1ccc(CN(C)CC(O)(Cn2cncn2)c2ccc(F)cc2F)cc1 (configuration not stated)
- MIC (Candida albicans [3]): 0.001 to 0.069 µg/mL (≈ 0.00209 to 0.144 µM)
- MIC (Candida albicans [4]): 0.001 to 0.069 µg/mL (≈ 0.00209 to 0.144 µM)
- MIC (Candida albicans [5]): 0.001 to 0.069 µg/mL (≈ 0.00209 to 0.144 µM)
- MIC (Pichia kudriavzevii [6]): 0.001 to 0.069 µg/mL (≈ 0.00209 to 0.144 µM)
- MIC (Pichia kudriavzevii [7]): 0.001 to 0.069 µg/mL (≈ 0.00209 to 0.144 µM)
- MIC (Nakaseomyces glabratus): 0.001 to 0.069 µg/mL (≈ 0.00209 to 0.144 µM)
- MIC (Candida parapsilosis [8]): 0.001 to 0.069 µg/mL (≈ 0.00209 to 0.144 µM)
- MIC (Candida parapsilosis [9]): 0.001 to 0.069 µg/mL (≈ 0.00209 to 0.144 µM)
- MIC (Aspergillus fumigatus [10]): 0.767 to 3.57 µg/mL (≈ 1.6 to 7.44 µM)

Structure (SMILES): C#CCN(Cc1ccc(F)cc1F)CC(O)(Cn1cncn1)c1ccc(F)cc1F (configuration not stated)
- MIC80 (Candida albicans [11]): 0.00097 µg/mL
- MIC80 (Pichia kudriavzevii [12]): 0.00097 µg/mL (≈ 0.00232 µM)
- Ratio (Candida albicans [13]): 515
- Ratio (Pichia kudriavzevii [14]): 64

Structure (SMILES): OC(CN1CCC(OCc2ccc(F)cc2)CC1)(Cn1cncn1)c1ccc(F)cc1F (configuration not stated)
- MIC80 (Candida albicans [11]): 0.01 µM
- MIC80 (Candida parapsilosis [15]): 0.01 to 2.33 µM (≈ 0.00446 to 1.04 µg/mL)
- MIC80 (Candida tropicalis): 0.01 to 2.33 µM (≈ 0.00446 to 1.04 µg/mL)
- MIC80 (Kluyveromyces marxianus): 0.01 to 2.33 µM (≈ 0.00446 to 1.04 µg/mL)
- MIC80 (Cryptococcus neoformans): 0.01 to 2.33 µM (≈ 0.00446 to 1.04 µg/mL)
- MIC80 (Trichophyton rubrum): 0.03 to 0.15 µM (≈ 0.0134 to 0.067 µg/mL)
- MIC80 (Aspergillus fumigatus [16]): 0.55 to 2.33 µM (≈ 0.246 to 1.04 µg/mL)
- MIC80 (Candida albicans [17]): 0.01 to 2.33 µM (≈ 0.00446 to 1.04 µg/mL)
- Ratio (Candida albicans [13]): 82

Structure (SMILES): O=C(O)c1cn(C2CC2)c2c(Cl)c(N3CCC(NCC(O)(Cn4cncn4)c4ccc(F)cc4)C3)c(F)cc2c1=O (configuration not stated)
- MIC (Candida albicans [11]): 0.25 to 2 µg/mL (≈ 0.427 to 3.42 µM)
- MIC (Pichia norvegensis): 0.25 to 2 µg/mL (≈ 0.427 to 3.42 µM)

Structure (SMILES): O=C(O)c1cn(C2CC2)c2c(Cl)c(N3CCC(NCC(O)(Cn4cncn4)c4ccc(F)c(F)c4)C3)c(F)cc2c1=O (configuration not stated)
- MIC (Candida albicans [11]): 0.25 to 2 µg/mL (≈ 0.415 to 3.32 µM)
- MIC (Pichia norvegensis): 0.25 to 2 µg/mL (≈ 0.415 to 3.32 µM)

Structure (SMILES): OC(CN1CCC(OCc2ccc(Cl)c(Cl)c2)CC1)(Cn1cncn1)c1ccc(F)cc1F (configuration not stated)
- MIC80 (Candida albicans [11]): 0.01 µM
- MIC80 (Candida parapsilosis [15]): 0.01 to 2.33 µM (≈ 0.00497 to 1.16 µg/mL)
- MIC80 (Candida tropicalis): 0.01 to 2.33 µM (≈ 0.00497 to 1.16 µg/mL)
- MIC80 (Kluyveromyces marxianus): 0.01 to 2.33 µM (≈ 0.00497 to 1.16 µg/mL)
- MIC80 (Cryptococcus neoformans): 0.01 to 2.33 µM (≈ 0.00497 to 1.16 µg/mL)
- MIC80 (Trichophyton rubrum): 0.03 to 0.15 µM (≈ 0.0149 to 0.0746 µg/mL)
- MIC80 (Aspergillus fumigatus [16]): 0.55 to 2.33 µM (≈ 0.274 to 1.16 µg/mL)
- MIC80 (Candida albicans [17]): 0.01 to 2.33 µM (≈ 0.00497 to 1.16 µg/mL)
- Ratio (Candida albicans [13]): 82
